# Experimental data published in ChEMBL document CHEMBL1122214, “omicron-Quinone formation in the biochemical oxidation of the antitumor drug N2-methyl-9-hydroxyellipticinium acetate” (J Med Chem, 1983).
# Columns and labels:
# L1210 = test: In vitro antitumor activity against murine leukemia L1210 after 48 hour; type: functional; settings: Mus musculus, L1210, 48 h; read-out: ID50 (the source's name)
# [1] = Compound was evaluated for its pKa (weak acid) value; type: physicochemical
Compound,IC50 (L1210) [µM],pKa [1]
Cc1c2cc[n+](C)cc2c(C)c2c3c([nH]c12)C=CC(=O)C3=O,9.6,5.1
COC1=CC(=O)C(=O)c2c1nc1c(C)c3ccn(C)cc3c(C)c21,5.8,–
Cc1c2c(c(C)c3c[n+](C)ccc13)C1=CC(=O)C=CC1=N2,0.05,–
